In patent US5460697A, “Method of pulping wood chips with a fungi using sulfite salt-treated wood chips” (priority 1994, dated 1995):

Assays:
[1] = system: C. subvennispora L-14807-sp; experiment: Effect of sodium bisulfite on radial growth of white-rot fungi; type: cell-based, C. subvermispora; details: 500 μg/ml
Experimental: (§1) 2% agar was added to the medium. The medium was autoclaved for 15 min. and the medium was poured into petri dishes. These plates were then inoculated with a plug cut into 8-mm diameter plugs from a petri dish containing a 5-day-old culture of P. chrysosporium or a petri dish containing a 10-day-old culture of another white-rot fungi. P. chrysosporium-inoculated plates were incubated at 39° C. Plates inoculated with other fungi were incubated at 27° C.

[2] = system: C. subvennispora FP-104027-T; experiment: as above; type: cell-based, C. subvermispora; details: 500 μg/ml
Experimental: as §1

[3] = system: C. subvennispora FP-105752-sp; experiment: as above; type: cell-based, C. subvermispora; details: 500 μg/ml
Experimental: as §1

[4] = system: C. subvennispora L-15225-sp; experiment: as above; type: cell-based, C. subvermispora; details: 500 μg/ml
Experimental: as §1

[5] = system: C. subvennispora FP-90031-sp; experiment: as above; type: cell-based, C. subvermispora; details: 500 μg/ml
Experimental: as §1

[6] = system: C. subvennispora L-6133-sp; experiment: as above; type: cell-based, C. subvermispora; details: 500 μg/ml
Experimental: as §1

C. subvennispora CZ-3 = experiment: as above; type: cell-based, C. subvermispora; details: 500 μg/ml
Experimental: as §1

[7] = system: indigenous microorganisms; experiment: Contaminants level of sodium bisulfite-soaked aspen chips (plating before inoculation and at harvest); type: cell-based, endogenous microorganisms of aspen wood chips; details: for contaminants level at harvest (in words): fungus-treated chips with sodium bisulfite
Experimental: Three batches of aspen wood chips were prepared, each batch containing 1800 g dry weight of chips. One batch was soaked in 18 kg of water containing no sodium bisulfite. A second batch was soaked in 18 kg of water containing 28.125 g of sodium bisulfite. A third batch was soaked in 18 kg of water containing 56.250 g of sodium bisulfite. After the chips had soaked, we performed our experiments on 1600 g of chips (dry weight basis). The soaking was done at room temperature for about 1 hour. After soaking, water or sodium bisulfite solution was drained through a mesh. Based on the amount of water or sodium bisulfite solution absorbed by the chips, we calculated that 1600 g dry weight of chips retained about 600 or 1200 μg/ml of sodium bisulfite. Thus, there were three treatments: 1) chips without sodium bisulfite (water only), 2) chips containing 600 μg/ml of sodium bisulfite, and 3) chips containing 1200 μg/ml of sodium bisulfite.
Bioreactors containing soaked chips were left at room temperature for 48 h. U.S. Pat. No. 5,055,159 describes a suitable bioreactor. (U.S. Pat. No. 5,055,159 is hereby incorporated by reference.) Prior to inoculation, chips were pulled out from these bioreactors and plated on potato dextrose and tryptic soya agar plates to measure the contaminants level. These plates were incubated at 27° C. and 65% relative humidity for 24 h.
At harvest, fungus-treated chips with and without sodium bisulfite soaking were plated on potato dextrose and tryptic soya agar plates to determine the contaminants level. These plates were incubated at 27° C. and 65% relative humidity for 72 h. […] High level of sodium bisulfite (1200 μg/ml) caused only 1.7% wood loss, saved 18.4% of electrical energy, improved tear index by 15%, and fiber length by 26% as compared to the control.
We repeated the experiment described above with a four-week incubation. Four batches of aspen wood chips were prepared, each batch containing 3600 g dry weight of chips. One batch was soaked in 36 kg of water containing no sodium bisulfite. Second, third and fourth batches each were soaked in 36 kg of water containing 112.50 g of sodium bisulfite at room temperature for about 1 hour. After soaking, water or sodium bisulfite solution was drained through a mesh. Based on the amount of water or sodium bisulfite solution soaked, we calculated that each batch of 1600 g dry weight of chips retained about 1300 μg/ml of sodium bisulfite. Bioreactors containing soaked chips were left at room temperature for 48 h. The following eight treatments were made:
Prior to inoculation, chips were pulled out from the bioreactors and plated on potato dextrose and tryptic soya agar plates to determine the contaminants level. These plates were incubated at 27° C. and 65% relative humidity for 24 h. […]

[8] = system: Phanerochaete chrysosporium BKM-F-1767; experiment: Effect of sodium bisulfite on radial growth and mycelial dry weight of P. chrysosporium; type: cell-based
Experimental: as §1

white-rot fungi = experiment: Effect of sodium bisulfite on radial growth of white-rot fungi (summary); type: cell-based, white-rot fungi listed in Table 7; details: 500 μg/ml, 72 and 96 h
Experimental: as §1

P. brevispora 7030-sp = experiment: Effect of sodium bisulfite on radial growth of white-rot fungi; type: cell-based; details: 500 μg/ml
Experimental: as §1

P. tremellosa PRL-2845 = experiment: as above; type: cell-based; details: 500 μg/ml
Experimental: as §1

H. setulosa FP-106976-sp = experiment: as above; type: cell-based; details: 500 μg/ml
Experimental: as §1

[9] = system: P. subserialis RLG-6074-sp; experiment: as above; type: cell-based; details: 500 μg/ml
Experimental: as §1

O=S([O-])O.[Na+] [Sodium Bisulfite] was tested, and the “Radial growth 72h ± SD” value ([1]; 72 h) was 2.60 ± .30 cm, the “Radial growth 96h ± SD” value ([1]; 96 h) was 5.07 ± .31 cm and the “Radial growth 72h ± SD” value ([2]; 72 h) was 3.63 ± .23 cm. For the same molecule, the “Radial growth 96h ± SD” value ([2]; 96 h) was 6.07 ± .46 cm, the “Radial growth 72h ± SD” value ([3]; 72 h) was 2.13 ± .06 cm and the “Radial growth 96h ± SD” value ([3]; 96 h) was 4.00 ± 00 cm. For the same molecule, the “Radial growth 72h ± SD” value ([4]; 72 h) was 1.63 ± .40 cm, the “Radial growth 96h ± SD” value ([4]; 96 h) was 4.20 ± .72 cm and the “Radial growth 72h ± SD” value ([5]; 72 h) was 3.20 ± .20 cm. The “Radial growth 96h ± SD” value ([5]; 96 h) was 5.77 ± .31 cm, the “Radial growth 72h ± SD” value ([6]; 72 h) was 2.37 ± .25 cm and the “Radial growth 96h ± SD” value ([6]; 96 h) was 4.80 ± .20 cm. For the same molecule, the “Radial growth 72h ± SD” value (C. subvennispora CZ-3; 72 h) was 2.37 ± .12 cm, the “Radial growth 96h ± SD” value (C. subvennispora CZ-3; 96 h) was 4.37 ± .15 cm and the “endogenous microorganisms on chips (in words)” value ([7]; 1200 μg/ml, prior to inoculation, 48 h after soaking, 2-week experiment) was “no endogenous microorganisms”. The “inhibition of microorganisms prior to inoculation (in words)” value ([7]; 1300 μg/ml, 4-week experiment) was “completely inhibited microorganisms”, the “contaminants level at harvest (in words)” value ([7]; 2 weeks) was “almost no contamination” and the “contaminants level at harvest (in words)” value ([7]; 4 weeks) was “almost no contamination”. The “Mycelial Dry Weight 36 ± SD” value ([8]; 100 μg/ml) was 21 ± 3 mg, the “Radial Growth 24 h ± SD” value ([8]; 100 μg/ml) was 4.30 ± .26 cm and the “Radial Growth 36h ± SD” value ([8]; 100 μg/ml) was 7.52 ± .27 cm. For the same molecule, the “Mycelial Dry Weight 36 ± SD” value ([8]; 250 μg/ml) was 39 ± 8 mg, the “Radial Growth 24 h ± SD” value ([8]; 250 μg/ml) was 5.16 ± .28 cm and the “Radial Growth 36h ± SD” value ([8]; 250 μg/ml) was 8.62 ± .20 cm. For the same molecule, the “Mycelial Dry Weight 36 ± SD” value ([8]; 500 μg/ml) was 36 ± 6 mg, the “Radial Growth 24 h ± SD” value ([8]; 500 μg/ml) was 5.07 ± .25 cm and the “Radial Growth 36h ± SD” value ([8]; 500 μg/ml) was 8.68 ± .09 cm. The “Mycelial Dry Weight 36 ± SD” value ([8]; 1000 μg/ml) was 10 ± 2 mg, the “Radial Growth 24 h ± SD” value ([8]; 1000 μg/ml) was 1.15 ± .22 cm and the “Radial Growth 36h ± SD” value ([8]; 1000 μg/ml) was 2.88 ± .42 cm. The “dry weight of the fungus (in words)” value ([8]; 250 or 500 μg/ml) was “increased”, the “radial growth (in words)” value ([8]; 250 or 500 μg/ml, 24 and 36 h) was “increased the radial growth of P. chrysosporium” and the “growth of white-rot fungi such as P. chrysosporium (in words)” value ([8]; summary statement) was “promoted the growth of white-rot fungi”. The “radial growth (in words)” value (white-rot fungi) was “increased the radial growth”, the “Radial growth 72h ± SD” value (P. brevispora 7030-sp; 72 h) was 2.23 ± .06 cm and the “Radial growth 96h ± SD” value (P. brevispora 7030-sp; 96 h) was 4.07 ± .38 cm. The “Radial growth 72h ± SD” value (P. tremellosa PRL-2845; 72 h) was 1.73 ± .06 cm, the “Radial growth 96h ± SD” value (P. tremellosa PRL-2845; 96 h) was 2.97 ± .12 cm and the “Radial growth 72h ± SD” value (H. setulosa FP-106976-sp; 72 h) was 1.97 ± .06 cm. For the same molecule, the “Radial growth 96h ± SD” value (H. setulosa FP-106976-sp; 96 h) was 3.77 ± .25 cm, the “Radial growth 72h ± SD” value ([9]; 72 h) was 3.93 ± .42 cm and the “Radial growth 96h ± SD” value ([9]; 96 h) was 7.07 ± .29 cm.
